Common to all, as to format: cell-based, mouse
Data set [1] relates to C2C12 myotubes. Briefly: SUnSET assay of protein synthesis. The procedure:
Surface sensing translation (SUnSET) assay was performed as described above. Briefly, 1 μg/mL puromycin was added to the culture and the harvest was lysed after 10 minutes. For immunoblotting, the myotube extract was treated with anti-puromycin 12D10 antibody (MABE343; Millipore).

The subject of data set [2] is Atrogin-1, MuRF-1, FoxO3a expression. Briefly: qPCR of atrophy genes in dexamethasone-treated myotubes. The note with it: 10 μM dexamethasone 24 hours. The procedure:
C2C12 myoblasts were seeded onto 6-well plates in a growth medium (GM). After reaching confluence, the cultures were treated with DM for 72 hours, and myotube atrophy was induced with DM containing 10 μM dexamethasone for 24 hours in the presence or absence of the drug of interest. Myotubes were visualized using hematoxylin and eosin staining according to a previously published protocol, and imaged with an optical microscope (Olympus CKX41, Japan). A myotube distribution was calculated by dividing the number of myotubes in each group by the total number of myotubes per image.
The transcription level of the gene was measured using a StepOnePlus Real Time PCR System (manufactured by Applied Biosystems, UK). cDNA was reverse transcribed from total RNA using an AccuPower RT PreMix (manufactured by Bioneer, USA). Real-time PCR was performed by modifying the manufacturer's instructions as follows.
PCR was performed three times using a total of 20 μL of 2×Power SYBR Green PCR Master Mix containing 200 nM of specific primers and 1 μL of cDNA. 10 minutes of incubation was performed at 95° C. prior to PCR amplification. The amplification consisted of 40 cycles of denaturation (for 15 seconds at 95° C.), annealing (for 1 minute at 60° C.), and extension (for 20 seconds at 72° C.). Extension and fluorescence detection were performed at 72° C. after each cycle. After the final cycle, melting point analysis was performed using continuous fluorescence detection on samples at a temperature in a range of 60° C. to 95° C. Specific cDNA samples were included in each run and used as a reference for comparison between runs. Expression levels of GAPDH were used for normalization and expression levels of all other genes were calculated.
On the technique in general: In qPCR the cycle at which signal appears reflects the starting amount.

Data set [3] relates to C2C12 myoblasts. Briefly: MTT assay, myoblast viability. The procedure: C2C12 mouse skeletal muscle progenitor cells (myoblasts) were grown in a growth medium including Dulbecco's Modified Eagle's Medium (DMEM) supplemented with 10% fetal bovine serum (FBS), 50 units/mL if penicillin, and […] of streptomycin (PenStrep).
Cell proliferation was evaluated through MTT (3-(4,5-dimethylthiazol-2-yl)-2,5-diphenyltetrazolium bromide) assay as described above. Myoblasts were seeded 3 times into 96-well plates at a density of 2×10^3 cells per well. A compound to be tested was added, followed by 48 hours of incubation, the medium was changed to an MTT solution (0.5 mg/mL, final concentration), and the plate was incubated in an incubator at 37° C., 5%, CO2 conditions. After 60 minutes of incubation, 50 μL of DMSO was added. Optical density in each well was measured at 570 nm using a microplate reader (VersaMax, Molecular Devices, USA). For myotube analysis, myoblasts were differentiated for […], the medium was supplemented with the compound of interest, 48 hours of incubation was additionally performed, and the cultures were assayed.
(In general: Tetrazolium dyes change colour on reduction, which living cells bring about.)

The source of these data is US11878003B2, “Composition comprising organoselenium compound for treatment of skeletal muscle atrophy” (Gwangju Institute of Science and Technology, priority 2021, dated 2024).

What is called IC50 is the midpoint of a concentration-inhibition curve. As to `O=c1c2ccccc2[se]n1-c1ccccc1` [ebselen], the protein synthesis entry in data set [1] (alone or with dexamethasone) is reported as “effective in increasing protein synthesis”; in data set [1] (dexamethasone-treated myotubes), “increased”. Besides, the “Atrogin-1 and FoxO3a expression” value in data set [2] is “inhibited the up-regulation”. In addition, in data set [3] (MTT), the “concentration at which cytotoxicity was not observed” value was at most 10 µM. Further, the IC50 in data set [3] (Mus musculus, C2C12, 48 hours, read-out: IC50, MTT assessment) worked out at 22.4 µM.
